Experimental data taken from US8841233B2, “Herbicidal compositions comprising 4-amino-3-chloro-5-fluoro-6-(4-chloro-2-fluoro-3-methoxyphenyl) pyridine-2-carboxylic acid or a derivative thereof and 4-hydroxyphenyl-pyruvate dioxygenase (HPPD) inhibitors” (Dow Agrosciences LLC, priority 2012, dated 2014).

How the values were obtained:
[1] = system: DIGSA; test: Post-emergence foliar-applied weed control, greenhouse (Example I); type: in vivo, Digitaria sanguinalis (L.) Scop.; conditions: 37.5 gai/ha
Excerpt: (§1) Evaluation of Post-emergence Foliar-Applied Herbicidal Mixtures for Weed Control in Direct Seeded Rice
(§2) Seeds or nutlets of the desired test plant species were planted in a soil matrix prepared by mixing a loam or sandy loam soil (e.g., 28.6 percent silt, 18.8 percent clay, and 52.6 percent sand, with a pH of about 5.8 and an organic matter content of about 1.8 percent) and calcareous grit in an 80 to 20 ratio. The soil matrix was contained in plastic pots with a volume of 1 quart and a surface area of 83.6 square centimeters (cm^2). When required to ensure good germination and healthy plants, a fungicide treatment and/or other chemical or physical treatment was applied. The plants were grown for 8-22 days in a greenhouse with an approximate 14 h photoperiod which was maintained at about 29° C. during the day and 26° C. during the night. Nutrients (Peters Excel® 15-5-15 5-Ca 2-Mg and iron chelate) were applied in the irrigation solution as needed and water was added on a regular basis. Supplemental lighting was provided with overhead metal halide 1000-Watt lamps as necessary. The plants were employed for testing when they reached the first through fourth true leaf stage.
(§3) Treatments consisted of the acid or esters of 4-amino-3-chloro-5-fluoro-6-(4-chloro-2-fluoro-3-methoxy-phenyl)pyridine-2-carboxylic acid (Compound A), each formulated as an SC (suspension concentrate), and various herbicidal components alone and in combination. Forms of Compound A were applied on an acid equivalent basis.
(§4) Other herbicidal components were applied on an active ingredient basis and included 4-hydroxyphenyl pyruvate dioxygenase (HPPD)-inhibiting herbicides mesotrione formulated as Callisto®, sulcotrione formulated as Mikado®, pyrazolynate formulated as Sunbird® 10% GR, and benzobicyclon formulated as Benzobicyclon 3.5%.
(§5) Treatment requirements were calculated based upon the rates being tested, the concentration of active ingredient or acid equivalent in the formulation, and a 12 mL application volume at a rate of 187 L/ha.
(§6) For treatments comprised of formulated compounds, measured amounts of compounds were placed individually in 25 mL glass vials and diluted in a volume of 1.25% (v/v) Agri-Dex® crop oil concentrated to obtain 12× stock solutions. […] Application solutions were prepared by adding an appropriate amount of each stock solution (e.g., 1 mL) and diluted to the appropriate final concentrations with the addition of 10 mL of an aqueous mixture of 1.25% (v/v) crop oil concentrate so that the final spray solutions contained 1.25+/−0.05% (v/v) crop oil concentrate.
(§7) For treatments comprised of formulated and technical compounds, weighed amounts of the technical materials were placed individually in 25 mL glass vials and dissolved in a volume of 97:3 v/v acetone/DMSO to obtain 12× stock solutions, and measured amounts of the formulated compounds were placed individually in 25 mL glass vials and diluted in a volume of 1.5% (v/v) crop oil concentrate or water to obtain 12× stock solutions. […] Application solutions were prepared by adding an appropriate amount of each stock solution (e.g., 1 mL) and diluted to the appropriate final concentrations with the addition of an appropriate amount of an aqueous mixture of 1.5% (v/v) crop oil concentrate so that the final spray solutions contained 1.25% (v/v) crop oil concentrate. As required, additional water and/or 97:3 v/v acetone/DMSO was added to individual application solutions so that the final acetone and DMSO concentrations of the application solutions being compared were 8.1% and 0.25%, respectively.
(§8) All stock solutions and applications solutions were visually inspected for compound compatibility prior to application. Spray solutions were applied to the plant material with an overhead Mandel track sprayer equipped with a 8002E nozzles calibrated to deliver 187 L/ha over an application area of 0.503 m^2 at a spray height of 18 to 20 inches (46 to 50 cm) above average plant canopy height. […]

[2] = system: ECHOR; test: In-water applied weed control, transplanted paddy rice, greenhouse (Example II); type: in vivo, Echinochloa oryzoides (Ard.) Fritsch
Description: (§9) Evaluation of in-Water Applied Herbicidal Mixtures for Weed Control in Transplanted Paddy Rice
(§10) Weed seeds or nutlets of the desired test plant species were planted in puddled soil (mud) prepared by mixing a shredded, non-sterilized mineral soil (50.5 percent silt, 25.5 percent clay, and 24 percent sand, with a pH of about 7.6 and an organic matter content of about 2.9 percent) and water at a 1:1 volumetric ratio. The prepared mud was dispensed in 365 mL aliquots into 16-ounce (oz.) non-perforated plastic pots with a surface area of 86.59 square centimeters (cm^2) leaving a headspace of 3 centimeters (cm) in each pot. Mud was allowed to dry overnight prior to planting or transplanting. Rice seeds were planted in Sun Gro MetroMix® 306 planting mixture, which typically has a pH of 6.0 to 6.8 and an organic matter content of about 30 percent, in plastic plug trays. Seedlings at the second or third leaf stage of growth were transplanted into 840 mL of mud contained in 32-oz. non-perforated plastic pots with a surface area of 86.59 cm^2 4 days prior to herbicide application. The paddy was created by filling the headspace of the pots with 2.5 to 3 cm of water. When required to ensure good germination and healthy plants, a fungicide treatment and/or other chemical or physical treatment was applied. The plants were grown for 4-22 days in a greenhouse with an approximate 14 h photoperiod which was maintained at about 29′C during the day and 26° C. during the night. Nutrients were added as Osmocote® (19:6:12, N:P:K+ minor nutrients) at 2 g per 16-oz. pot and 4 g per 32-oz. pot. Water was added on a regular basis to maintain the paddy flood, and supplemental lighting was provided with overhead metal halide 1000-Watt lamps as necessary. The plants were employed for testing when they reached the first through fourth true leaf stage.
as §3, with “(compound A)” for “(Compound A),”, “concentrate)” for “concentrate),”, “compound” for “Compound”
as §4, with “3.5% or technical material.” for “3.5%.”
(§11) Treatment requirements for each compound or herbicidal component were calculated based upon the rates being tested, the concentration of active ingredient or acid equivalent in the formulation, an application volume of 2 mL per component per pot, and an application area of 86.59 cm^2 per pot.
(§12) For formulated compounds, a measured amount was placed in an individual 100 or 200 mL glass vial and was dissolved in a volume of 1.25% (v/v) Agri-Dex® crop oil concentrate to obtain application solutions.
(§13) For technical grade compounds, a weighed amount was placed in an individual 100 to 200 mL glass vial and was dissolved in a volume of acetone to obtain concentrated stock solutions. […] The concentrated stock solutions obtained were diluted with an equivalent volume of an aqueous mixture containing 2.5% (v/v) crop oil concentrate so that the final application solutions contained 1.25% (v/v) crop oil concentrate.
(§14) Applications were made by injecting with a pipetter appropriate amounts of the application solutions, individually and sequentially, into the aqueous layer of the paddy. Control plants were treated in the same manner with the solvent blank. Applications were made so that all treated plant material received the same concentrations of acetone and crop oil concentrate.
(§15) The treated plants and control plants were placed in a greenhouse as described above and water was added as needed to maintain a paddy flood. […]

[3] = system: IPOHE; test: Post-emergence foliar-applied weed control, greenhouse (Example I); type: in vivo, Ipomoea hederacea Jacq.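 For Visual Weed Control (%) - 20 DAA IPOHE Obs: visual score 0 no injury to 100 complete kill versus untreated plants.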
Excerpt: as §1, §2, §3, §4, §5, §6, §7, §8

[4] = system: ECHCG; test: In-water applied weed control, transplanted paddy rice, greenhouse (Example II); type: in vivo, Echinochloa crusgalli (L.) Beauv.; conditions: for Visual Weed Control (%) - 22 DAA ECHCG Obs: Benzobicyclon (3.5%);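 for Visual Weed Control (%) - 20 DAA ECHCG Obs: visual score 0 no injury to 100 complete kill versus untreated plants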
Description: as §9, §10
as §3, with “(compound A)” for “(Compound A),”, “concentrate)” for “concentrate),”, “compound” for “Compound”
as §4, with “3.5% or technical material.” for “3.5%.”
as §11, §12, §13, §14, §15

[5] = system: ECHCO; test: Post-emergence foliar-applied weed control, greenhouse (Example I); type: in vivo, Echinochloa colona (L.) Link
Excerpt: as §1, §2, §3, §4, §5, §6, §7, §8

[6] = system: BRAPP; test: as above; type: in vivo
Excerpt: as §1, §2, §3, §4, §5, §6, §7, §8

[7] = system: ECHCG; test: as above; type: in vivo, Echinochloa crusgalli (L.) Beauv.
Excerpt: as §1, §2, §3, §4, §5, §6, §7, §8

[8] = system: CYPRO; test: In-water applied weed control, transplanted paddy rice, greenhouse (Example II); type: in vivo, Cyperus rotundus L.
Description: as §9, §10
as §3, with “(compound A)” for “(Compound A),”, “concentrate)” for “concentrate),”, “compound” for “Compound”
as §4, with “3.5% or technical material.” for “3.5%.”
as §11, §12, §13, §14, §15

[9] = system: SCPMA; test: as above; type: in vivo
Description: as §9, §10
as §3, with “(compound A)” for “(Compound A),”, “concentrate)” for “concentrate),”, “compound” for “Compound”
as §4, with “3.5% or technical material.” for “3.5%.”
as §11, §12, §13, §14, §15

[10] = system: CYPIR; test: Post-emergence foliar-applied weed control, greenhouse (Example I); type: in vivo, Cyperus iria L.
Excerpt: as §1, §2, §3, §4, §5, §6, §7, §8

[11] = system: SCPJU; test: as above; type: in vivo, Schoenoplectus juncoides (Roxb.) Palla
Excerpt: as §1, §2, §3, §4, §5, §6, §7, §8

[12] = 50 gai/ha, Benzobicyclon (technical)
[13] = 100 gae/ha, Benzobicyclon (technical)
[14] = 100 gai/ha, Benzobicyclon (3.5%)
[15] = 200 gai/ha, Benzobicyclon (3.5%)

Compound: CS(=O)(=O)c1ccc(C(=O)C2C(=O)CCCC2=O)c(Cl)c1 [Sulcotrione, 2-[2-chloro-4-(methylsulfonyl)benzoyl]-1,3-cyclohexanedione, reference compound]
- Visual Weed Control (%) - 20 DAA DIGSA Obs [1]: 25%
- Visual Weed Control (%) - 20 DAA ECHOR Obs ([2]; 22.5 gai/ha): 10%
- Visual Control (%) - 20 DAA IPOHE Obs ([3]; 37.5 gai/ha): 20%
- Visual Weed Control (%) - 20 DAA IPOHE Obs ([3]; 37.5 gai/ha): 20%
- Visual Weed Control (%) - 20 DAA IPOHE Obs ([3]; 75 gai/ha): 30%
- Visual Weed Control (%) - 20 DAA IPOHE Obs ([3]; 150 gai/ha): 80%
- Visual Weed Control (%) - 20 DAA ECHCG Obs ([4]; 22.5 gai/ha): 0%
- Visual Weed Control (%) - 20 DAA ECHCO Obs ([5]; 37.5 gai/ha): 15%
- Visual Weed Control (%) - 20 DAA ECHCO Obs ([5]; 75 gai/ha): 35%
- Visual Weed Control (%) - 20 DAA ECHCO Obs ([5]; 150 gai/ha): 95%
- Visual Weed Control (%) - 20 DAA BRAPP Obs ([6]; 37.5 gai/ha): 0%
- Visual Weed Control (%) - 20 DAA BRAPP Obs ([6]; 75 gai/ha): 20%
- Visual Weed Control (%) - 20 DAA BRAPP Obs ([6]; 150 gai/ha): 60%
- Visual Weed Control (%) - 20 DAA ECHCG Obs ([7]; 37.5 gai/ha): 0%
- Visual Weed Control (%) - 20 DAA ECHCG Obs ([7]; 75 gai/ha): 20%
- Visual Weed Control (%) - 20 DAA ECHCG Obs ([7]; 150 gai/ha): 95%

Compound: CS(=O)(=O)c1ccc(C(=O)C2=C(Sc3ccccc3)C3CCC(C3)C2=O)c(Cl)c1 (stereo not shown) [Benzobicyclon, 3-(2-chloro-4-mesylbenzoyl)-2-phenylthiobicyclo[3.2.1]oct-2-en-4-one, reference compound]
- Visual Weed Control (%) - 22 DAA ECHOR Obs [2, 12]: 50%
- Visual Weed Control (%) - 21 DAA ECHOR Obs [2, 13]: 30%
- Visual Weed Control (%) - 22 DAA ECHCG Obs ([4]; 100 gai/ha): 30%
- Visual Weed Control (%) - 22 DAA ECHCG Obs ([4]; 200 gai/ha): 45%
- Visual Weed Control (%) - 22 DAA ECHCO Obs ([5]; 50 gai/ha): 10%
- Visual Weed Control (%) - 22 DAA ECHCO Obs ([5]; 100 gai/ha): 10%
- Visual Weed Control (%) - 22 DAA ECHCO Obs ([5]; 200 gai/ha): 85%
- Visual Weed Control (%) - 22 DAA CYPRO Obs [8, 12]: 10%
- Visual Weed Control (%) - 22 DAA CYPRO Obs [8, 14]: 30%
- Visual Weed Control (%) - 22 DAA CYPRO Obs [8, 15]: 45%
- Visual Weed Control (%) - 21 DAA SCPMA Obs [9, 13]: 80%
- Visual Weed Control (%) - 21 DAA SCPMA Obs [9, 14]: 70%
- Visual Weed Control (%) - 21 DAA SCPMA Obs [9, 15]: 93%
- Visual Weed Control (%) - 22 DAA CYPIR Obs ([10]; 100 gai/ha): 0%
- Visual Weed Control (%) - 22 DAA CYPIR Obs ([10]; 200 gai/ha): 0%
- Visual Weed Control (%) - 22 DAA SCPJU Obs ([11]; 50 gai/ha): 50%
- Visual Weed Control (%) - 22 DAA SCPJU Obs ([11]; 100 gai/ha): 60%
- Visual Weed Control (%) - 22 DAA SCPJU Obs ([11]; 200 gai/ha): 70%
- Visual Weed Control (%) - 22 DAA ECHCG Obs ([7]; 50 gai/ha): 0%
- Visual Weed Control (%) - 22 DAA ECHCG Obs ([7]; 100 gai/ha): 20%
- Visual Weed Control (%) - 22 DAA ECHCG Obs ([7]; 200 gai/ha): 15%
